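All cell lines were grown in 96-well plates and treated with compound for 48 hours. TGI: concentration producing complete growth inhibition.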
Assays:
Assay in all cases: inhibition of tumour cell growth, NCI panel, 48 h
SNB-75 CNS = tested on: SNB-75 CNS
UO-31 renal = tested on: UO-31 renal
NCI/ADR-RES ovarian = tested on: NCI/ADR-RES ovarian
786-0 renal = tested on: 786-0 renal
SW-620 colon = tested on: SW-620 colon
T-47D breast = tested on: T-47D breast
RXF 393 renal = tested on: RXF 393 renal
NCI-H460 lung = tested on: NCI-H460 lung
OVCAR-4 ovarian = tested on: OVCAR-4 ovarian
ACHN renal = tested on: ACHN renal
HCT-15 colon = tested on: HCT-15 colon
SNB-19 CNS = tested on: SNB-19 CNS
HOP-62 NSCLC = tested on: HOP-62 NSCLC
KM12 colon = tested on: KM12 colon
SR leukemia = tested on: SR leukemia
NCI-H23 lung = tested on: NCI-H23 lung
HOP-92 NSCLC = tested on: HOP-92 NSCLC
MOLT-4 leukemia = tested on: MOLT-4 leukemia
CCRF-CEM leukemia = tested on: CCRF-CEM leukemia
TK-10 renal = tested on: TK-10 renal
MALME-3M melanoma = tested on: MALME-3M melanoma
UACC-257 melanoma = tested on: UACC-257 melanoma
CAKI-1 renal = tested on: CAKI-1 renal
BT-549 breast = tested on: BT-549 breast
NCI-H522 lung = tested on: NCI-H522 lung
SN12C renal = tested on: SN12C renal
A549 NSCLC = tested on: A549 NSCLC
IGROV1 ovarian = tested on: IGROV1 ovarian
A498 renal = tested on: A498 renal
HT29 colon = tested on: HT29 colon
U251 CNS = tested on: U251 CNS
UACC-62 melanoma = tested on: UACC-62 melanoma
SF-268 CNS = tested on: SF-268 CNS
LOX IMVI melanoma = tested on: LOX IMVI melanoma
OVCAR-8 ovarian = tested on: OVCAR-8 ovarian
HCC-2998 colon = tested on: HCC-2998 colon
SK-OV-3 ovarian = tested on: SK-OV-3 ovarian
MDA-N = tested on: MDA-N
PC-3 prostate = tested on: PC-3 prostate
HCT-116 colon = tested on: HCT-116 colon
SK-MEL-2 melanoma = tested on: SK-MEL-2 melanoma
OVCAR-5 ovarian = tested on: OVCAR-5 ovarian
MDA-MB-435 = tested on: MDA-MB-435
SF-295 CNS = tested on: SF-295 CNS
HL-60(TB) leukemia = tested on: HL-60(TB) leukemia
M14 melanoma = tested on: M14 melanoma
HS 578T breast = tested on: HS 578T breast
RPMI-8226 leukemia = tested on: RPMI-8226 leukemia
EKVX NSCLC = tested on: EKVX NSCLC
K-562 leukemia = tested on: K-562 leukemia
MCF7 breast = tested on: MCF7 breast
OVCAR-3 ovarian = tested on: OVCAR-3 ovarian
DU-145 prostate = tested on: DU-145 prostate
MDA-MB-231 breast = tested on: MDA-MB-231 breast
SK-MEL-28 melanoma = tested on: SK-MEL-28 melanoma
NCI-H226 lung = tested on: NCI-H226 lung
SF-539 CNS = tested on: SF-539 CNS
COLO 205 colon = tested on: COLO 205 colon
SK-MEL-5 melanoma = tested on: SK-MEL-5 melanoma

`OCCCN(CCc1ccc(Cl)c(Cl)c1)CCN1CCCC1` was tested, and the TGI (SNB-75 CNS) was > 100 µM, the TGI (UO-31 renal) was > 100 µM and the TGI (NCI/ADR-RES ovarian) was > 100 µM. The TGI (786-0 renal) was 60.4 µM, the TGI (SW-620 colon) was > 100 µM and the TGI (T-47D breast) was > 100 µM. The TGI (RXF 393 renal) was > 100 µM, the TGI (NCI-H460 lung) was > 100 µM and the TGI (OVCAR-4 ovarian) was > 100 µM. For the same molecule, the TGI (ACHN renal) was > 100 µM, the TGI (HCT-15 colon) was > 100 µM and the TGI (SNB-19 CNS) was > 100 µM. The TGI (HOP-62 NSCLC) was > 100 µM, the TGI (KM12 colon) was > 100 µM and the TGI (SR leukemia) was > 100 µM. For the same molecule, the TGI (NCI-H23 lung) was > 100 µM, the TGI (HOP-92 NSCLC) was > 100 µM and the TGI (MOLT-4 leukemia) was > 100 µM. The TGI (CCRF-CEM leukemia) was > 100 µM, the TGI (TK-10 renal) was > 100 µM and the TGI (MALME-3M melanoma) was 41.5 µM. For the same molecule, the TGI (UACC-257 melanoma) was 36 µM, the TGI (CAKI-1 renal) was > 100 µM and the TGI (BT-549 breast) was > 100 µM. For the same molecule, the TGI (NCI-H522 lung) was 54.5 µM, the TGI (SN12C renal) was > 100 µM and the TGI (A549 NSCLC) was > 100 µM. For the same molecule, the TGI (IGROV1 ovarian) was > 100 µM, the TGI (A498 renal) was 44.6 µM and the TGI (HT29 colon) was > 100 µM. The TGI (U251 CNS) was > 100 µM, the TGI (UACC-62 melanoma) was 31.5 µM and the TGI (SF-268 CNS) was > 100 µM. The TGI (LOX IMVI melanoma) was > 100 µM, the TGI (OVCAR-8 ovarian) was > 100 µM and the TGI (HCC-2998 colon) was 32.9 µM. The TGI (SK-OV-3 ovarian) was > 100 µM, the TGI (MDA-N) was 42.7 µM and the TGI (PC-3 prostate) was > 100 µM. The TGI (HCT-116 colon) was > 100 µM, the TGI (SK-MEL-2 melanoma) was 36.6 µM and the TGI (OVCAR-5 ovarian) was > 100 µM. The TGI (MDA-MB-435) was 53.4 µM, the TGI (SF-295 CNS) was > 100 µM and the TGI (HL-60(TB) leukemia) was > 100 µM. For the same molecule, the TGI (M14 melanoma) was 32.9 µM, the TGI (HS 578T breast) was > 100 µM and the TGI (RPMI-8226 leukemia) was 70.6 µM. The TGI (EKVX NSCLC) was > 100 µM, the TGI (K-562 leukemia) was 46.2 µM and the TGI (MCF7 breast) was 79.9 µM. The TGI (OVCAR-3 ovarian) was > 100 µM, the TGI (DU-145 prostate) was > 100 µM and the TGI (MDA-MB-231 breast) was > 100 µM.

With `COc1cc2c(OC)c(c1)CCCC1=CC(=O)C=C(CCC2)C1=O` the TGI (SNB-75 CNS) was > 100 µM, the TGI (UO-31 renal) was > 100 µM and the TGI (NCI/ADR-RES ovarian) was > 65.7 µM. The TGI (786-0 renal) was > 55.1 µM, the TGI (SW-620 colon) was > 77 µM and the TGI (T-47D breast) was 43.5 µM. For the same molecule, the TGI (RXF 393 renal) was 76.7 µM, the TGI (NCI-H460 lung) was > 100 µM and the TGI (OVCAR-4 ovarian) was 31.1 µM. For the same molecule, the TGI (ACHN renal) was > 100 µM, the TGI (HCT-15 colon) was 98.4 µM and the TGI (SNB-19 CNS) was > 100 µM. The TGI (HOP-62 NSCLC) was > 100 µM, the TGI (KM12 colon) was 59.6 µM and the TGI (SR leukemia) was > 56.5 µM. For the same molecule, the TGI (NCI-H23 lung) was > 100 µM, the TGI (HOP-92 NSCLC) was 36.6 µM and the TGI (MOLT-4 leukemia) was 15.7 µM. For the same molecule, the TGI (CCRF-CEM leukemia) was 20.1 µM, the TGI (TK-10 renal) was > 100 µM and the TGI (MALME-3M melanoma) was 75.8 µM. The TGI (UACC-257 melanoma) was > 100 µM, the TGI (CAKI-1 renal) was > 100 µM and the TGI (BT-549 breast) was 92.3 µM. For the same molecule, the TGI (NCI-H522 lung) was 46.2 µM, the TGI (SN12C renal) was > 31.6 µM and the TGI (A549 NSCLC) was > 100 µM. For the same molecule, the TGI (IGROV1 ovarian) was > 100 µM, the TGI (SK-MEL-28 melanoma) was > 100 µM and the TGI (A498 renal) was > 100 µM. For the same molecule, the TGI (HT29 colon) was > 100 µM, the TGI (U251 CNS) was > 100 µM and the TGI (UACC-62 melanoma) was > 100 µM. For the same molecule, the TGI (NCI-H226 lung) was > 100 µM, the TGI (SF-268 CNS) was > 100 µM and the TGI (SF-539 CNS) was > 69.4 µM. For the same molecule, the TGI (LOX IMVI melanoma) was 31.1 µM, the TGI (COLO 205 colon) was > 31.6 µM and the TGI (OVCAR-8 ovarian) was > 31.6 µM. The TGI (HCC-2998 colon) was > 100 µM, the TGI (SK-OV-3 ovarian) was > 100 µM and the TGI (MDA-N) was 30.2 µM. The TGI (PC-3 prostate) was > 100 µM, the TGI (HCT-116 colon) was 38.1 µM and the TGI (OVCAR-5 ovarian) was > 100 µM. The TGI (MDA-MB-435) was 56.2 µM, the TGI (SF-295 CNS) was > 100 µM and the TGI (HL-60(TB) leukemia) was 24.6 µM. For the same molecule, the TGI (M14 melanoma) was > 64.5 µM, the TGI (HS 578T breast) was > 100 µM and the TGI (RPMI-8226 leukemia) was 25.9 µM. For the same molecule, the TGI (EKVX NSCLC) was > 87.4 µM, the TGI (K-562 leukemia) was 34.6 µM and the TGI (SK-MEL-5 melanoma) was > 100 µM. The TGI (MCF7 breast) was > 100 µM, the TGI (OVCAR-3 ovarian) was 55.1 µM and the TGI (DU-145 prostate) was > 100 µM. For the same molecule, the TGI (MDA-MB-231 breast) was > 66.4 µM.

Reference: PubChem BioAssay (NCI)
